What was measured:
[1] = system: PDGF-responsive neural precursors (PRPs) from dissociated E14 MGE/LGE; test: Primary neurosphere generation from dissociated E14 ganglionic eminences; assay type: cell-based, mouse
Procedure: Cell culture. The culture medium (MHM) was composed of DMEM/F-12 (1:1) including HEPES buffer (5 mM), glucose (0.6%), sodium bicarbonate (3 mM), glutamine (2 mM), insulin (25 μg/ml), transferrin (100 μg/ml), progesterone (20 nM), putrescine (10 μM), and sodium selenite (30 nM; all from Sigma, St. Louis, Mo., except glutamine from Invitrogen, Carlsbad, Calif.). The lateral, medial, or both ganglionic eminences (LGE, MGE or both) were removed from Embryonic Day 14 (E14) mouse embryos and mechanically dissociated with a fire-polished Pasteur pipette in MHM. Cells were plated at a density of […] unless otherwise indicated.
For neurosphere generation, PDGF-AA (100 ng/ml; Peprotech, Rocky Hill, N.J.), PDGF-BB (100 ng/ml; Peprotech), EGF (20 ng/ml; Peprotech), FGF2 (20 ng/ml; R&D [Minneapolis, Minn.])+heparan sulfate (2 μg/ml; HS; R&D), SHH (2 ug/ml; R&D), cyclopamine (5 μM; Toronto Research Chemicals, North York, Ontario), and/or DMSO (0.1%; carrier) was added to the MHM. MHM used to generate neurospheres also contained 2% B27 (Invitrogen).
[…] is one of the earliest markers of OLPs, and signaling by PDGF-AA is required for the generation of most oligodendrocytes (Fruttiger et al., Development 126:457 (1999)). Increasing concentrations of PDGF-AA were used to determine whether stimulation of dissociated E14 medial and lateral ganglionic eminences. (MGE and LGE, respectively) results in generation of neurospheres. The neurosphere assay was used because manipulation of primary cells is minimal compared to the immunopanning procedures used to isolate O-2A progenitors.
The effect of brain-derived neurotrophic factor (BDNF), neurotrophin-3 (NT-3), and nerve growth factor (NGF) on PRPs was determined. Cells were cultured as previously reported (Chojnacki et al., J Neurosci 24(48):10888 2004) in the presence of various combinations of PDGF, brain-derived neurotrophic factor (BDNF), NT-3, nerve growth factor (NGF), and the effects on neurosphere generation characterized. MHM is the defined medium used in cultures without growth factor.

NSC = test: FGF2-induced NSC proliferation; assay type: cell-based; conditions: 1 μM SU5402
[2] = system: PDGF-generated neurospheres; test: Differentiation of primary PDGF-AA-generated neurospheres, immunocytochemistry; assay type: cell-based, mouse
[3] = system: PRPs (single primary neurospheres); test: Self-renewal by single sphere dissociation (secondary neurospheres); assay type: cell-based; conditions: for secondary neurospheres per single primary PDGF-generated neurosphere: passaged into the named factor(s)
Procedure: Self-renewal capacity was examined by single sphere dissociation. Briefly, single 6 DIV neurospheres of equivalent size that were generated in the presence of EGF, PDGF-AA, or PDGF-AA and SHH were transferred into 96 well plates and mechanically dissociated. Dissociates were cultured in MHM supplemented with EGF, FGF2 (includes 2 μg/ml HS), FGF2 and SHH, PDGF-AA, PDGF-AA and SHH, PDGF-AA and FGF2, PDGF-AA and FGF2 and SHH, PDGF-AA and DMSO (0.1%), PDGF-AA and SHH, or PDGF-AA and FGF2 and cyclopamine. The number of secondary neurospheres generated was counted after 9 DIV.

dissociated E14 MGEs = test: Clonality test: GFP and CD1 E14 MGE cells co-cultured 1:1 in PDGF-AA; assay type: cell-based, mouse; conditions: 100 ng/ml PDGF-AA, 20,000 cells/ml, GFP:CD1 1:1
Excerpt: PDGF is also known to have chemotaxic effects on cortical NSCs (Forsberg-Nilsson et al., J Neurosci Res 53:521 (1998)), and thus it was possible that neurospheres generated under PDGF stimulation resulted from the directed migration of NSCs along the culture dish into clumps that resembled clonally-derived neurospheres. This possibility was studied, as previously described (Represa et al., Eur J Neurosci 14:452 (2001)), by culturing dissociated E14 MGEs from CD1 and TgN(GFPU)5Nagy (ubiquitous green fluorescent protein [GFP]-expressing) mice together, 1:1, at 20,000 cells/ml, and in the presence of 100 ng/ml of PDGF-AA. If cell clumping generates the majority of the neurospheres, then most neurospheres should contain both GFP- and non-GFP-expressing cells. However, 95±11% of the neurospheres were not chimeric for GFP expression (p<0.01; Tukey HSD; n=3) (FIGS. 1C-D), and there was no difference in the number of GFP- or non-GFP-expressing neurospheres produced (p>0.65; Tukey HSD; n=3) (FIG. 1D).

PRPs = test: GFP-expressing PDGF neurosphere dissociates plated on EGF-generated feeder layer; assay type: cell-based, mouse; conditions: PDGF with EGF feeder layer
Excerpt: To determine if extrinsic factors could promote self-renewal of PRPs, individual, 7 DIV, GFP-expressing, PDGF-generated neurospheres were isolated, dissociated in the presence of PDGF-AA, and differentiated on coverslips that had been plated 2 days earlier with or without 0.2×10^6 cells/ml of EGF-generated cells from dissociated primary EGF neurospheres. EGF-generated feeder cells had been allowed to differentiate for 2 days in the presence of 1% FBS. Plates were rinsed 3× with MHM prior to the addition of GFP-expressing, PDGF-generated dissociates. Numbers of adherent clones and cells per clone were assessed by GFP expression. All images were captured with a Photometrics Coolsnap digital camera (Tuscon, Ariz.) mounted on a Leica Microsystems DMIL inverted fluorescence microscope with Coolsnap V1.2.0 software.
However, these studies employed a defined culture media in which some factors required for self-renewal may be missing. To further study PRP self-renewal, primary PDGF neurospheres from the E14 MGEs of TgN(GFPU)5Nagy mice were grown for 7 DIV, individual neurospheres dissociated and transferred from single neurospheres onto poly-L-omithine coated coverslips that had been plated with or without 200,000 primary 7 DIV EGF-generated progeny 2 days earlier.

[4] = 6 DIV neurospheres differentiated 3 DIV

Cc1c[nH]c(/C=C2\C(=O)Nc3ccccc32)c1CCC(=O)O [SU5402, reference compound]
primary PDGF neurosphere formation ([1]; 1 μM SU5402): unaffected
block of FGF2-induced NSC proliferation (NSC): 90%

N[C@@H](Cc1cc(I)c(Oc2ccc(O)c(I)c2)c(I)c1)C(=O)O [T3, triiodothyronine]
increase in differentiation of oligodendrocytes (O4) ([2]; 20 ng/ml T3, 2 DIV, vs 1% FBS): 5 fold
MBP-only clones ([2]; 2 DIV): increased the number of MBP-only clones
MBP-expressing cells produced per clone ([2]; 2 DIV, vs 1% FBS, BMP-2, and T3 and BMP-2): significantly increased the number of MBP-expressing cells produced per clone
GFAP-immunoreactive astrocytes per neurosphere [2, 4]: no astrocytes
MBP-immunoreactive oligodendrocytes per neurosphere [2, 4]: 3.9±0.4

CC1=C2C[C@H]3[C@@H](CC=C4C[C@@H](O)CC[C@@]43C)[C@@H]2CC[C@]12O[C@@H]1C[C@H](C)CN[C@H]1[C@H]2C [cyclopamine, reference compound]
neurosphere size ([1]; 5 μM cyclopamine with 100 ng/ml PDGF-AA): smaller
reduction in number of PDGF-AA-generated neurospheres ([1]; 5 μM cyclopamine with 100 ng/ml PDGF-AA, MGE 10,000 cells/ml, vs PDGF-AA+DMSO): 5 fold
non-specific toxic effect ([1]; 5 μM cyclopamine, phase-bright differentiating cells present): likely not a result of a non-specific toxic effect
secondary neurospheres per primary PDGF-generated neurosphere ([3]; cyclopamine added to PDGF and FGF2): 3±1

EGF: epidermal growth factor, 20 ng/ml; Peprotech (NSDSECPLSHDGYCLHDGVCMYIEALDKYACNCVVGYIGERCQYRDLKWWELR; Epidermal growth factor; UniProt P01133 971-1023, looked up)
secondary neurospheres per single primary PDGF-generated neurosphere [3]: 3±1

FGF2: fibroblast growth factor 2, 20 ng/ml, with heparan sulfate 2 μg/ml
secondary neurospheres per single primary PDGF-generated neurosphere [3]: 3±1
secondary neurospheres / self-renewal compared with passage in PDGF ([3]; primary PDGF-generated neurospheres passaged into the named factor(s)): No increase in self-renewal

PDGF-AA: platelet-derived growth factor AA, 100 ng/ml; Peprotech
neurospheres produced ([1]; 100 ng/ml PDGF-AA, dissociated E14 MGE and LGE, n=3): 12±1 neurospheres per 10,000 plated cells
number of primary neurospheres generated ([1]; dissociated MGEs, SHH 2 μg/ml, n=8): 60±9
neurosphere production versus concentration ([1]; increasing concentrations of PDGF-AA): induced neurosphere production in a dose-dependent manner
neurospheres not chimeric for GFP expression (dissociated E14 MGEs): 95±11%
secondary neurospheres per single primary EGF-generated neurosphere ([3]; passaged into PDGF-AA): 26±5
secondary neurospheres per single primary PDGF-generated neurosphere [3]: 1±1
adherent GFP-labeled clones (PRPs): many clones of GFP-labeled cells that contained greater than 10 cells

Reference: patent US7629169B2, “Methods for the production of platelet-derived growth factor-responsive neural precursor cells” (Stem Cell Therapeutics Corp., priority 2004, dated 2009)
